Laboratory results taken from patent US11974572B2, “Fungicidal compositions” (SYNGENTA PARTICIPATIONS AG, priority 2017, dated 2024).

Assays:
[1] = test system: Glomerella lagenarium (Colletotrichum lagenarium); assay: Example A4: Glomerella lagenarium (Colletotrichum lagenarium) liquid culture / cucumber / preventative (anthracnose); type: cell-based; conditions: Colletotrichum orbiculare, 20 ppm in the applied formulation, compared to untreated control, read-out: disease control
Experimental: Mycelia fragments or conidia suspensions of a fungus prepared either freshly from liquid cultures of the fungus or from cryogenic storage, are directly mixed into nutrient broth. DMSO solutions of the test compound (max. 10 mg/ml) are diluted with 0.025% Tween20 by a factor of 50 and 10 μl of this solution is pipetted into a microtiter plate (96-well format). The nutrient broth containing the fungal spores/mycelia fragments is then added to give an end concentration of the tested compound. The test plates are incubated in the dark at 24° C. and 96% relative humidity. The inhibition of fungal growth is determined photometrically after 2 to 7 days, depending on the pathosystem, and percent antifungal activity relative to the untreated check is calculated.
Conidia of the fungus from cryogenic storage are directly mixed into nutrient broth (PDB—potato dextrose broth). After placing a (DMSO) solution of test compound into a microtiter plate (96-well format), the nutrient broth containing the fungal spores is added.
The following compounds at 20 ppm in the applied formulation give at least 80% disease control in this test when compared to untreated control under the same conditions, which show extensive disease development.

[2] = test system: Puccinia recondita f. sp. tritici; assay: Example A2: Puccinia recondita f. sp. tritici / wheat / leaf disc curative (brown rust); type: in vivo; conditions: foliar, 200 ppm in the applied formulation, wheat leaf segments, compared to untreated control leaf disks, read-out: disease control
Experimental: (§1) Leaf disks or leaf segments of various plant species are cut from plants grown in a greenhouse. The cut leaf disks or segments are placed in multiwell plates (24-well format) onto water agar. The leaf disks are sprayed with a test solution before (preventative) or after (curative) inoculation. Compounds to be tested are prepared as DMSO solutions (max. 10 mg/ml) which are diluted to the appropriate concentration with 0.025% Tween20 just before spraying. The inoculated leaf disks or segments are incubated under defined conditions (temperature, relative humidity, light, etc.) according to the respective test system. A single evaluation of disease level is carried out 3 to 14 days after inoculation, depending on the pathosystem. Percent disease control relative to the untreated check leaf disks or segments is then calculated.
Wheat leaf segments cv. Kanzler are placed on agar in multiwell plates (24-well format). The leaf segments are then inoculated with a spore suspension of the fungus. […] The leaf segments were incubated at 19° C. and 75% relative humidity under a light regime of 12 hours light/12 hours darkness in a climate cabinet and the activity of a compound was assessed as percent disease control compared to untreated when an appropriate level of disease damage appears in untreated check leaf segments (6 to 8 days after application). […]

[3] = test system: Puccinia recondita f. sp. tritici; assay: Example A1: Puccinia recondita f. sp. tritici / wheat / leaf disc preventative (brown rust); type: in vivo; conditions: foliar, 200 ppm in the applied formulation, wheat leaf segments, compared to untreated control leaf disks, read-out: disease control
Experimental: as §1
Wheat leaf segments cv. Kanzler were placed on agar in multiwell plates (24-well format) and sprayed with the formulated test compound diluted in water. […] The inoculated leaf segments were incubated at 19° C. and 75% relative humidity (rh) under a light regime of 12 hours light/12 hours darkness in a climate cabinet and the activity of a compound was assessed as percent disease control compared to untreated when an appropriate level of disease damage appears in untreated check leaf segments (7 to 9 days after application). […]

[4] = test system: Phakopsora pachyrhizi; assay: Example A3: Phakopsora pachyrhizi / soybean / leaf disc preventative (Asian soybean rust); type: in vivo; conditions: foliar, 200 ppm in the applied formulation, soybean leaf disks, compared to untreated control leaf disks, read-out: disease control
Experimental: as §1
Soybean leaf disks are placed on water agar in multiwell plates (24-well format) and sprayed with the formulated test compound diluted in water. One day after application leaf discs are inoculated by spraying a spore suspension on the lower leaf surface. […] The activity of a compound is assessed as percent disease control compared to untreated when an appropriate level of disease damage appears in untreated check leaf disks (12 to 14 days after application). […]

SMILES	melting point [°C]	inhibition of growth at 20 ppm [1] [%]	pest or weed control at 200 ppm [2] [%]	pest or weed control at 200 ppm [3] [%]	pest or weed control at 200 ppm [4] [%]
CN(Cc1ccc(-c2noc(C(F)(F)F)n2)cc1)C(=O)NCC1CC1 [X.22, 3-(cyclopropylmethyl)-1-methyl-1-[[4-[5-(trifluoromethyl)-1,2,4-oxadiazol-3-yl]phenyl]methyl]urea]		≥ 80	≥ 80	≥ 80	≥ 80
CCN(Cc1ccc(-c2noc(C(F)(F)F)n2)cc1)C(=O)NCC(F)(F)F [X.23, 1-ethyl-3-(2,2,2-trifluoroethyl)-1-[[4-[5-(trifluoromethyl)-1,2,4-oxadiazol-3-yl]phenyl]methyl]urea]		≥ 80	≥ 80	≥ 80	≥ 80
CON(Cc1ccc(-c2noc(C(F)(F)F)n2)cc1)C(=O)NC1CC1 [X.15, 3-cyclopropyl-1-methoxy-1-[[4-[5-(trifluoromethyl)-1,2,4-oxadiazol-3-yl]phenyl]methyl]urea]	84 to 87				
CON(Cc1ccc(-c2noc(C(F)(F)F)n2)cc1)C(=O)NC(C)C [X.19, 3-isopropyl-1-methoxy-1-[[4-[5-(trifluoromethyl)-1,2,4-oxadiazol-3-yl]phenyl]methyl]urea]	106 to 107.3				

Continued, in another order:

melting point [°C]	SMILES	inhibition of growth at 20 ppm [1] [%]	pest or weed control at 200 ppm [2] [%]	pest or weed control at 200 ppm [3] [%]	pest or weed control at 200 ppm [4] [%]
88.9 to 90.6	C#CCNC(=O)N(Cc1ccc(-c2noc(C(F)(F)F)n2)cc1)OC [X.20, 1-methoxy-3-prop-2-ynyl-1-[[4-[5-(trifluoromethyl)-1,2,4-oxadiazol-3-yl]phenyl]methyl]urea]				
92.6 to 94.3	COCC(=O)N(Cc1ccc(-c2noc(C(F)(F)F)n2)cc1)CC(F)(F)F [X.09, 2-methoxy-N-(2,2,2-trifluoroethyl)-N-[[4-[5-(trifluoromethyl)-1,2,4-oxadiazol-3-yl]phenyl]methyl]acetamide]				
64 to 70	C=CCNC(=O)N(Cc1ccc(-c2noc(C(F)(F)F)n2)cc1)OC [X.17, 3-allyl-1-methoxy-1-[[4-[5-(trifluoromethyl)-1,2,4-oxadiazol-3-yl]phenyl]methyl]urea]				
107 to 110	CCONC(=O)N(Cc1ccc(-c2noc(C(F)(F)F)n2)cc1)OC [X.16, 3-ethoxy-1-methoxy-1-[[4-[5-(trifluoromethyl)-1,2,4-oxadiazol-3-yl]phenyl]methyl]urea]				
